Measurements as given in US9303012B2, “Pyridine-2-amides useful as CB2 agonists” (Hoffmann-La Roche Inc., priority 2012, dated 2016).

What was measured:
human CB2 receptors = human CB2 receptors (Homo sapiens (Human), UniProt P34972); assay: functional cAMP assay, CHO cells expressing human CB2 receptors; format: cell-based
How it was run: (§1)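 Agonist EC50 values came from cAMP levels in CHO cells carrying human CB1 or CB2, after 30 min of compound treatment at 30 °C in the presence of 1 mM IBMX. Detection used a time-resolved FRET cAMP kit read against a cAMP standard curve.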

human CB1 receptors = human CB1 receptors (Homo sapiens (Human), UniProt P21554); assay: functional cAMP assay, CHO cells expressing human CB1 receptors; format: cell-based
Sequence of human CB1 receptors (P21554 whole entry): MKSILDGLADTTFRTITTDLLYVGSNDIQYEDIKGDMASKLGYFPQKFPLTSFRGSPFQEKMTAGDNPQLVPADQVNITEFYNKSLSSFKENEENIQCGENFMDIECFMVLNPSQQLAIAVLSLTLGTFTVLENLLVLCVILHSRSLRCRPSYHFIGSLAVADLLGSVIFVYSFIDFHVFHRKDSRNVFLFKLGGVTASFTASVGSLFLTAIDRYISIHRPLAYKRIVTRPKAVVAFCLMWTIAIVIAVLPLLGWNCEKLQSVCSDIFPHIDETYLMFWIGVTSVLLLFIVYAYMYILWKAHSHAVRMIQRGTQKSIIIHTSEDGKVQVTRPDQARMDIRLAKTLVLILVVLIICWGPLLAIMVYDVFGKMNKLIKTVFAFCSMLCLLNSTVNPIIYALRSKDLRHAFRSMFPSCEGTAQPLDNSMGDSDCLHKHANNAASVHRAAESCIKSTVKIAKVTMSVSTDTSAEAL
How it was run: as §1

Sequence of human CB2 receptors (P34972 whole entry): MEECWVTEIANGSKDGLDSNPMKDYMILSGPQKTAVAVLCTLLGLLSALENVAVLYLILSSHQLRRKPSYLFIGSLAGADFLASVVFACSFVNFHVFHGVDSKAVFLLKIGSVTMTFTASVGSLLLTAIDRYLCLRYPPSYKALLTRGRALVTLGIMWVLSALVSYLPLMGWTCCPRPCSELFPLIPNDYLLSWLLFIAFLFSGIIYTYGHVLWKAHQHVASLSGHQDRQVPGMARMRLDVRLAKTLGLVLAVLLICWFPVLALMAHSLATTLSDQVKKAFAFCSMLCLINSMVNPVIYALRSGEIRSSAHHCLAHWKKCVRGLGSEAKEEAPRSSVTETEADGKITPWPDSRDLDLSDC

CN(C(=O)c1ccc(C2CC2)c(Cc2ccc(F)cc2)n1)C(C)(C)C [Example 5, 5-Cyclopropyl-6-(4-fluoro-benzyl)-pyridine-2-carboxylic acid tert-butyl-methyl-amide]
EC50 (human CB2 receptors): 0.0008 µM
EC50 (human CB1 receptors): 0.268 µM

CN(C)C(=O)c1ccc(N2CC(F)(F)C2)c(OCC2CC2)n1 [Example 2, 6-Cyclopropylmethoxy-5-(3,3-difluoro-azetidin-1-yl)-pyridine-2-carboxylic acid dimethylamide]
EC50 (human CB2 receptors): 0.297 µM
EC50 (human CB1 receptors): > 10 µM

CC(C)(C)N(CC(=O)O)C(=O)c1ccc(N2CC(F)(F)C2)c(OCC2CC2)n1 [Example 24, {tert-Butyl-[6-cyclopropylmethoxy-5-(3,3-difluoro-azetidin-1-yl)-pyridine-2-carbonyl]-amino}-acetic acid]
EC50 (human CB2 receptors): 0.34 µM
EC50 (human CB1 receptors): > 10 µM

COCC(C)(C)N(C)C(=O)c1ccc(N2CC(F)(F)C2)c(OCC2CC2)n1 [Example 9, 6-Cyclopropylmethoxy-5-(3,3-difluoro-azetidin-1-yl)-pyridine-2-carboxylic acid (2-methoxy-1,1-dimethyl-ethyl)-methyl-amide]
EC50 (human CB2 receptors): 0.0038 µM
EC50 (human CB1 receptors): > 10 µM

CC1(C)CN(C(=O)c2ccc(N3CC(F)(F)C3)c(OCC3CC3)n2)CCO1 [Example 55, [6-Cyclopropylmethoxy-5-(3,3-difluoro-azetidin-1-yl)-pyridin-2-yl]-(2,2-dimethyl-morpholin-4-yl)-methanone]
EC50 (human CB2 receptors): 0.0554 µM
EC50 (human CB1 receptors): > 10 µM

CC1(C)C(=O)NCCN1C(=O)c1ccc(N2CC(F)(F)C2)c(OCC2CC2)n1 [Example 28, 4-[6-Cyclopropylmethoxy-5-(3,3-difluoro-azetidin-1-yl)-pyridine-2-carbonyl]-3,3-dimethyl-piperazin-2-one]
EC50 (human CB2 receptors): 0.414 µM
EC50 (human CB1 receptors): > 10 µM

O=C(c1ccc(N2CC(F)(F)C2)c(OCC2CC2)n1)N1CC(F)(F)C[C@H]1CO [Example 53, [6-Cyclopropylmethoxy-5-(3,3-difluoro-azetidin-1-yl)-pyridin-2-yl]-((S)-4,4-difluoro-2-hydroxymethyl-pyrrolidin-1-yl)-methanone]
EC50 (human CB2 receptors): 0.0037 µM
EC50 (human CB1 receptors): > 10 µM

CN(C(=O)c1ccc(N2CC(F)(F)C2)c(OCC2CC2)n1)C(C)(C)C [Example 1, 6-Cyclopropylmethoxy-5-(3,3-difluoro-azetidin-1-yl)-pyridine-2-carboxylic acid tert-butyl-methyl-amide]
EC50 (human CB2 receptors): 0.0046 µM
EC50 (human CB1 receptors): > 10 µM

O=C(c1ccc(N2CC(F)(F)C2)c(OCC2CC2)n1)N1CCC(CO)(C(F)(F)F)C1 (centres unmarked) [Example 137, [6-(Cyclopropylmethoxy)-5-(3,3-difluoroazetidin-1-yl)pyridin-2-yl]-[3-(hydroxymethyl)-3-(trifluoromethyl)pyrrolidin-1-yl]methanone]
EC50 (human CB2 receptors): 0.0538 µM
EC50 (human CB1 receptors): > 10 µM

CC1(C)CCN(C(=O)c2ccc(C3CC3)c(OCC3CCCO3)n2)CC1 (centres unmarked) [Example 43, [5-Cyclopropyl-6-(tetrahydro-furan-2-ylmethoxy)-pyridin-2-yl]-(4,4-dimethyl-piperidin-1-yl)-methanone]
EC50 (human CB2 receptors): 0.0349 µM
EC50 (human CB1 receptors): > 10 µM

O=C(c1ccc(N2CC(F)(F)C2)c(OCC2CC2)n1)N1CCC(C(O)C(F)(F)F)C1 (centres unmarked) [Example 136, [6-(Cyclopropylmethoxy)-5-(3,3-difluoroazetidin-1-yl)pyridin-2-yl]-[3-(2,2,2-trifluoro-1-hydroxyethyl)pyrrolidin-1-yl]methanone]
EC50 (human CB2 receptors): 0.0329 µM
EC50 (human CB1 receptors): > 10 µM

CC1(C)CCCN1C(=O)c1ccc(N2CC(F)(F)C2)c(OCC2CC2)n1 [Example 18, [6-Cyclopropylmethoxy-5-(3,3-difluoro-azetidin-1-yl)-pyridin-2-yl]-(2,2-dimethyl-pyrrolidin-1-yl)-methanone]
EC50 (human CB2 receptors): 0.0006 µM
EC50 (human CB1 receptors): > 10 µM

NC(=O)[C@@H]1CCCCN1C(=O)c1ccc(C2CC2)c(OCC2CC2)n1 [Example 92, (−)-1-(5-Cyclopropyl-6-cyclopropylmethoxy-pyridine-2-carbonyl)-piperidine-2-carboxylic acid amide]
EC50 (human CB2 receptors): 0.101 µM
EC50 (human CB1 receptors): > 10 µM

O=C(c1ccc(N2CC(F)(F)C2)c(OCC2CC2)n1)N1C[C@@H]2C[C@H]1CN2Cc1ccccc1 [Example 63, ((1S,4S)-5-Benzyl-2,5-diaza-bicyclo[2.2.1]hept-2-yl)-[6-cyclopropylmethoxy-5-(3,3-difluoro-azetidin-1-yl)-pyridin-2-yl]-methanone]
EC50 (human CB2 receptors): 0.198 µM
EC50 (human CB1 receptors): > 10 µM

CC1(O)CCN(C(=O)c2ccc(N3CC(F)(F)C3)c(OCC3CC3)n2)C1 (centres unmarked) [Example 37, [6-Cyclopropylmethoxy-5-(3,3-difluoro-azetidin-1-yl)-pyridin-2-yl]-(3-hydroxy-3-methyl-pyrrolidin-1-yl)-methanone]
EC50 (human CB2 receptors): 0.364 µM
EC50 (human CB1 receptors): > 10 µM

NC(=O)C1CC2(CC2)CN1C(=O)c1ccc(N2CC(F)(F)C2)c(OCC2CC2)n1 (centres unmarked) [Example 135, 5-[6-(Cyclopropylmethoxy)-5-(3,3-difluoroazetidin-1-yl)pyridine-2-carbonyl]-5-azaspiro[2.4]heptane-6-carboxamide]
EC50 (human CB2 receptors): 0.0156 µM
EC50 (human CB1 receptors): > 10 µM

NC(=O)C1CCCCN1C(=O)c1ccc(C2CC2)c(OCC2CC2)n1 (centres unmarked) [Example 88, 1-(5-Cyclopropyl-6-cyclopropylmethoxy-pyridine-2-carbonyl)-piperidine-2-carboxylic acid amide]
EC50 (human CB2 receptors): 0.18 µM
EC50 (human CB1 receptors): > 10 µM

CC1(C)SCN(C(=O)c2ccc(N3CC(F)(F)C3)c(OCC3CC3)n2)[C@@H]1C(N)=O [Example 120, (R)-3-[6-Cyclopropylmethoxy-5-(3,3-difluoro-azetidin-1-yl)-pyridine-2-carbonyl]-5,5-dimethyl-thiazolidine-4-carboxylic acid amide]
EC50 (human CB2 receptors): 0.042 µM
EC50 (human CB1 receptors): > 10 µM

Cc1nnc(CN(C(=O)c2ccc(N3CC(F)(F)C3)c(OCC3CC3)n2)C2CC2)o1 [Example 81, 6-Cyclopropylmethoxy-5-(3,3-difluoro-azetidin-1-yl)-pyridine-2-carboxylic acid cyclopropyl-(5-methyl-[1,3,4]oxadiazol-2-ylmethyl)-amide]
EC50 (human CB2 receptors): 0.652 µM
EC50 (human CB1 receptors): > 10 µM

CC(C)CS(=O)(=O)c1nc(C(=O)N2CCCC2(C)C)ccc1C1CC1 [Example 30, [5-Cyclopropyl-6-(2-methyl-propane-1-sulfonyl)-pyridin-2-yl]-(2,2-dimethyl-pyrrolidin-1-yl)-methanone]
EC50 (human CB2 receptors): 0.0345 µM
EC50 (human CB1 receptors): > 10 µM

COC(=O)C1CCCN1C(=O)c1ccc(N2CC(F)(F)C2)c(OCC2CC2)n1 (centres unmarked) [Example 108, 1-[6-Cyclopropylmethoxy-5-(3,3-difluoro-azetidin-1-yl)-pyridine-2-carbonyl]-pyrrolidine-2-carboxylic acid methyl ester]
EC50 (human CB2 receptors): 0.156 µM
EC50 (human CB1 receptors): > 10 µM

O=C(c1ccc(N2CC(F)(F)C2)c(OCC2CC2)n1)N1CCCC12COC2 [Example 38, [6-Cyclopropylmethoxy-5-(3,3-difluoro-azetidin-1-yl)-pyridin-2-yl]-(2-oxa-5-aza-spiro[3.4]oct-5-yl)-methanone]
EC50 (human CB2 receptors): 0.212 µM
EC50 (human CB1 receptors): > 10 µM

NC(=O)[C@@H]1CC2(CC2)CN1C(=O)c1ccc(N2CC(F)(F)C2)c(OCC2CC2)n1 [Example 145, (6S)-5-[6-(Cyclopropylmethoxy)-5-(3,3-difluoroazetidin-1-yl)pyridine-2-carbonyl]-5-azaspiro[2.4]heptane-6-carboxamide]
EC50 (human CB2 receptors): 0.356 µM
EC50 (human CB1 receptors): > 10 µM

CCN(C(=O)c1ccc(N2CC(F)(F)C2)c(OCC2CC2)n1)C(C)(C)C [Example 7, 6-Cyclopropylmethoxy-5-(3,3-difluoro-azetidin-1-yl)-pyridine-2-carboxylic acid tert-butyl-ethyl-amide]
EC50 (human CB2 receptors): 0.0006 µM
EC50 (human CB1 receptors): 0.292 µM

COCCN(C(=O)c1ccc(N2CC(F)(F)C2)c(OCC2CC2)n1)C(C)(C)C [Example 20, 6-Cyclopropylmethoxy-5-(3,3-difluoro-azetidin-1-yl)-pyridine-2-carboxylic acid tert-butyl-(2-methoxy-ethyl)-amide]
EC50 (human CB2 receptors): 0.0053 µM
EC50 (human CB1 receptors): > 10 µM

O=C(c1ccc(N2CC(F)(F)C2)c(OCC2CC2)n1)N1CCN(CC2CC2)CC1 [Example 106, [6-Cyclopropylmethoxy-5-(3,3-difluoro-azetidin-1-yl)-pyridin-2-yl]-(4-cyclopropylmethyl-piperazin-1-yl)-methanone]
EC50 (human CB2 receptors): 0.123 µM
EC50 (human CB1 receptors): > 10 µM

CC1(C)CC(O)CCN1C(=O)c1ccc(N2CC(F)(F)C2)c(OCC2CC2)n1 (centres unmarked) [Example 66, [6-Cyclopropylmethoxy-5-(3,3-difluoro-azetidin-1-yl)-pyridin-2-yl]-(4-hydroxy-2,2-dimethyl-piperidin-1-yl)-methanone]
EC50 (human CB2 receptors): 0.0056 µM
EC50 (human CB1 receptors): > 10 µM

NC(=O)C1CS(=O)(=O)CN1C(=O)c1ccc(C2(O)CCC2)c(OCC2CC2)n1 (centres unmarked) [Example 131, 3-[6-(Cyclopropylmethoxy)-5-(1-hydroxycyclobutyl)pyridine-2-carbonyl]-1,1-dioxo-1,3-thiazolidine-4-carboxamide]
EC50 (human CB2 receptors): 0.0625 µM
EC50 (human CB1 receptors): > 10 µM

NC(=O)C1CSCN1C(=O)c1ccc(N2CC(F)(F)C2)c(OCC2CC2)n1 (centres unmarked) [Example 122, 3-[6-Cyclopropylmethoxy-5-(3,3-difluoro-azetidin-1-yl)-pyridine-2-carbonyl]-thiazolidine-4-carboxylic acid amide]
EC50 (human CB2 receptors): 0.05 µM
EC50 (human CB1 receptors): > 10 µM

O=C(c1ccc(N2CC(F)(F)C2)c(OCC2CC2)n1)N1C[C@H]2CC[C@@H](C1)O2 [Example 85, [6-Cyclopropylmethoxy-5-(3,3-difluoro-azetidin-1-yl)-pyridin-2-yl]-(1S,5R)-8-oxa-3-aza-bicyclo[3.2.1]oct-3-yl-methanone]
EC50 (human CB2 receptors): 0.0854 µM
EC50 (human CB1 receptors): > 10 µM

CCOC(=O)C1CCCN(C(=O)c2ccc(N3CC(F)(F)C3)c(OCC3CC3)n2)C1c1ccccc1 (centres unmarked) [Example 67, 1-[6-Cyclopropylmethoxy-5-(3,3-difluoro-azetidin-1-yl)-pyridine-2-carbonyl]-2-phenyl-piperidine-3-carboxylic acid ethyl ester]
EC50 (human CB2 receptors): 0.368 µM
EC50 (human CB1 receptors): > 10 µM
